Measurements as given in PubChem BioAssay (NCI).
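Cells were grown in 96-well plates and exposed to each compound for 48 hours at five concentrations; endpoints were interpolated linearly between bracketing concentrations, or set to the highest concentration if not reached. At the GI50, growth is halved. At the TGI there is no net growth.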

Columns and labels:
Assay in all cases: NCI tumour cell line growth inhibition, 48 h
[1] = test system: M14 melanoma
[2] = test system: MDA-N
[3] = test system: 786-0 renal
[4] = test system: P388/ADR leukemia
[5] = test system: SNB-78 CNS
[6] = test system: DLD-1 colon
[7] = test system: DMS 273 small cell lung
[8] = test system: XF 498 CNS
[9] = test system: HOP-18 NSCLC
[10] = test system: SN12K1 renal
[11] = test system: KM20L2 colon
[12] = test system: M19-MEL melanoma
[13] = test system: DMS 114 small cell lung
[14] = test system: P388 leukemia
[15] = test system: LXFL 529 NSCLC
[16] = test system: RXF-631 renal

COC1=C(OC)C(=O)C(Cc2c(Cl)nc3sc(C)cn23)=C(C)C1=O
TGI [1]: 34.5 µM | TGI [2]: 32.8 µM | TGI [3]: 38.8 µM

Nc1ncnc2nc[nH]c12
TGI [4]: > 250 µM | TGI [5]: > 158 µM | TGI [6]: > 250 µM | TGI [7]: > 206 µM | TGI [8]: 20.8 µM | TGI [9]: > 250 µM | TGI [10]: > 250 µM | TGI [11]: > 250 µM | TGI [12]: > 250 µM | TGI [13]: > 250 µM | TGI [14]: > 250 µM

O=C(Nc1ccc(Cl)cc1)c1cc2cc(N=Nc3ccccc3Cl)ccc2oc1=O
TGI [5]: 79.7 µM | TGI [6]: 32.2 µM | TGI [1]: 55 µM | TGI [8]: 67.1 µM | TGI [9]: 96.9 µM | TGI [11]: 46.8 µM | TGI [12]: 53 µM | TGI [13]: 25 µM | TGI [15]: 32.5 µM

O=C([O-])C[n+]1ccccc1
TGI [1]: > 100 µM | TGI [2]: > 100 µM | TGI [3]: > 100 µM

CCOc1ccc(NC(=O)C(=O)CC(=O)c2sc(NNC(C)=O)nc2C)cc1
TGI [16]: > 100 µM | TGI [5]: > 100 µM | TGI [6]: > 100 µM | TGI [7]: > 100 µM | TGI [1]: > 100 µM | TGI [8]: > 100 µM | TGI [11]: > 100 µM | TGI [12]: > 100 µM | TGI [15]: > 100 µM

CC(CCN)(CCN)[N+](=O)[O-]
TGI [1]: > 100 µM | TGI [2]: > 100 µM | TGI [3]: > 100 µM

C[C@]12C=CC(=O)C=C1CC[C@@H]1[C@@H]2CC[C@]2(C)OC(=O)CC[C@@H]12
TGI [4]: 449 µM | TGI [16]: > 500 µM | TGI [5]: > 500 µM | TGI [6]: > 500 µM | TGI [7]: > 500 µM | TGI [1]: > 500 µM | TGI [2]: > 500 µM | TGI [8]: 373 µM | TGI [3]: > 500 µM | TGI [9]: 232 µM | TGI [10]: 498 µM | TGI [11]: > 470 µM | TGI [13]: > 500 µM | TGI [15]: > 500 µM | TGI [14]: > 486 µM

CCOC(=O)c1cnc2oc3ccc(O)cc3c2c1C
TGI [1]: > 100 µM | TGI [2]: > 100 µM | TGI [3]: > 100 µM

CCOC(=O)C1=C(C)OC2(O)C=CC(O)=C3C(=O)N(c4ccccc4)C(=O)C312 (stereo unspecified)
TGI [1]: > 100 µM | TGI [3]: > 100 µM

COCCOC(=O)c1c(C)n([O-])c2cc(Cl)c(Cl)cc2[n+]1=O
TGI [1]: 41.9 µM | TGI [2]: > 100 µM | TGI [3]: 85.1 µM

O=C(O)c1cc([N+](=O)[O-])cc2c(=O)c3cnccc3[nH]c12
TGI [1]: > 100 µM | TGI [2]: > 100 µM

CC(C)=CCC/C(C)=C/CC/C(C)=C/CC/C(C)=C/C=C/C=C(\C)CC/C=C(\C)CC/C=C(\C)CCC=C(C)C
TGI [1]: > 100 µM | TGI [2]: > 100 µM | TGI [3]: 52.3 µM

NN(CC(=O)O)CC(=O)O
TGI [1]: > 100 µM | TGI [2]: > 100 µM | TGI [3]: > 100 µM

CCCCCCCCCCCCCCCCCCOc1ccccc1CC(=O)OCC[N+]1(C)CCCCC1
GI50 [1]: 2.52 µM | TGI [1]: 6.58 µM

COc1cc2c(c(O)c1OC)-c1c(cc(OC)c(OC)c1OC)CC(C)C(C)C2 (stereo unspecified)
TGI [1]: > 100 µM | TGI [2]: > 100 µM | TGI [3]: > 100 µM

CN1CCOC(c2ccc(Cl)cc2)O1 (stereo unspecified)
TGI [1]: > 100 µM | TGI [2]: > 100 µM
